Here are results for one compound from patent publication US20050220906A1, “Pharmaceutical composition for treating rheumatism and the preparation thereof” (priority 2002, published 2005).

One assay relates to DTH caused by DNFB. The assay can be described thus: Delayed hypersensitivity (DTH) caused by DNFB in the mouse ear. The assay is classed as in vivo, NIH mouse. The procedure:
Each mouse was led to hypersensitivity reaction by using the 1% DNFB acetone solution on the dosage of 0.025 ml at the right place of the abdomen where the pilus had been cut yet. Using the same solution on the same place was to enhance the hypersensitivity reaction on the third day. On the fifth day, all the mice were smeared with the 1% DNFB edible oil solution at the mice's right ears on the dosage of 0.01 ml each. 24 hours later, all the mice were killed. The mouse's 2 ears were weighted by the torsion balance and the difference of the 2 ears was recorded as the DTH degree caused by the DNFB. The experiment was carried out on the different immune and administration processes.
The immune and administration processes is as following: [drawing 1]

The next assay deals with hemolysin antibody. Briefly: Hemolysin antibody caused by chick RBC, ICR mouse. The assay is classed as in vivo. The conditions noted are these: 0˜7. On the procedure:
190 mice, 18-22 g weight, half male and half female, were divided into 19 groups. Each mouse was immunized with 5% CRBC solution 0.2 ml. The Fengshiping solutions were drenched at the different times. 7 days after the immunization, all the mice were sampled the blood from the eyes. Then the blood samples were diluted and measured the level of the hemolysin antibody.

The next assay has as its system IL-1. Briefly: IL-1 of abdominal macrophages from dosed mice. The assay is classed as in vivo, NIH mice. The conditions noted are these: 0.02 g/kg, 10 days. On the procedure: (§1) 70 NIH mice, 18-22 g weight, half male and half female, were divided into 7 groups at random. All the groups were drenched with the correspondent medicines (fengshiping and the other medicines). The medicines were drenched once a day for 10 days. 24 hours after the last administration, all the mice were killed and sampled the macrophage and spleen cells from the abdominal carvity. The IL-1 and IL-6 in the samples were measured.
The macrophages in the abdominal carvity were sampled in the asepsis condition. Then the samples were washed by the Hank's liquor for 2 times and nonserum RPMI1640 liquor for 1 time. Then the clear samples were adjusted to the 4×10^6/ml cell suspension with 5% FCS-RPMI liquor. 1 ml of the suspension was added to the test tube and cultured at 37° C. for 1 hour. The unadherent cells were abandoned. Then the cultured liquor was added with 5% FCS-RPMI 1640 and LPS (10 ng/ml) to culture. The cells cultured in 5% CO2 at 37° C. for 72 hours. During the course, the cultured cells were freezed and thawed for several times. The final product was saved at 4° C. The C57 mice were sampled the thymus in the asepsis condition. […]
100 μl supernate separated from the frost thawing liquor and 100 μl cell suspension of thymus were added into the 96-hole flat bottom cell-culture batten. […] The cultured cells were collected with multihead cell-harvesting apparatus and measured the cpm value. […]

For another assay, the system named is IL-6. Briefly: IL-6 of spleen cells from dosed mice (MH60 cells). In kind it is in vivo, NIH mice. The following applies: 0.02 g/kg, 10 days. The procedure:
as §1
The spleen cells were sampled in the asepsis condition. Then the samples were washed by the Hank's liquor for 2 times and nonserum RPMI1640 liquor for 1 time. Then the clear samples were adjusted to the 2×10^6/ml cell suspension with 5% FCS-RPMI liquor. 1 ml of the suspension was added to the round-bottom centrifuge tube. After adding the ConA (10 ng/ml), the samples were cultured in the 5% CO2 at 37° C. for 72 hour.
The MH60 cells, which grew depending on the IL-6 and were on the logarithmic growth stage, were adjusted to the 1×10^5/ml cell suspension with the 5% FC-RPMI1640.
The 96-hole flat bottom cell culturing batten was added with the MH60 cell suspension on the quantity of 100 μl/hole and the culturing supernate 25 μl/hole. Then the fluid in each hole was adjusted to the 200 μl with the 5% FCS-RPMI 1640. […] And then they were measured the OD at the wavelength 570 nm and 630 nm. […]

A further assay has as its system CD4, CD8 cells. Briefly: CD4 and CD8 cells of the spleen. The following applies: 0.02 g/kg. The assay is classed as in vivo, ICR mice. The procedure:
The experiment was same to 5.1. 24 hours after the last administration, the spleen cell samples were made into the 2×10^8/ml cell suspension with 5% FCS-RPIM1640. The quantity of CD4, CD8, NK cells and the rate CD4/CD8 were measured on the usural method.
The spleen cell suspension 50 μl was added on the glass to made the cell smear. The glass had been coated by the polylysine. The T cell of the mouse was set as the positive control sample. The cell smear was enveloped by the serum of the normal mouse after it was fixed by the acetone. Then the enveloped sample was added with the antibody of CD4 and CD8 which were marked by the hominine biotin. It was incubated at 37° C. for 2 hours. Then the sample was added with the avidin labeled by enzyme and put still for 10 min. After added with the substrate for 10 min, the mixed sample was washed and dyed with the hematoxylin for 2 min. Then the sample was dyhidrated with the grade-alcohol and enveloped with gelatin-glycetrol. 200 cells in the smear were chosen as the research target under the high power microscope. [formula]

Where [1] appears, read: 0.05 g/kg, administration day −2˜0.
The mark [2] stands for this setting: 0.05 g/kg, administration day −2˜2.
Where [3] appears, read: 0.1 × 3 g/kg, 0, 2, 4 day once a day.

As to `O=P1(N(CCCl)CCCl)NCCCO1` (centres unmarked) [cyclophosphane], in the assay on DTH caused by DNFB (setting [1]), the “Percent of ear swelling” value was 37.47 ± 6.71 and the Percent of inhibition was 11.7%. In addition, in the assay with DTH caused by DNFB (setting [2]), the “Percent of ear swelling” value was determined as 39.40 ± 10.78 and the Percent of inhibition was found to be 8.1%. Also, in the assay with DTH caused by DNFB (setting [3]), the “Percent of ear swelling” value was 23.00 ± 7.65 and the Percent of inhibition is given as 40.3%. Besides, in the assay on DTH caused by DNFB (0.25 g/kg, −3 d), the “Percent of ear swelling” value worked out at 41.84 ± 7.75 and the Percent of inhibition is reported as −8.7%. In the assay on hemolysin antibody (Table 3.2, 0.02 g/kg), the Hemolysin value was 27.80 ± 6.60 and the Inhibiting percent was 77.9%. In the assay with hemolysin antibody (Table 3.3, 0.02 g/kg), this compound gave a Hemolysin value of 25.0 ± 4.0 and an Inhibiting percent of 90.2%. Also, the IL-1 in the assay with IL-1 worked out at 44.5 ± 7.7 ng/mL. In the assay on IL-6, the IL-6 was 49.6 ± 6.7 IU/ml. Besides, in the assay on CD4, CD8 cells, the CD4 is listed as 11.50 ± 2.50 %, the CD4/CD8 came out at 2.91 ± 0.53 and the CD8 was 4.10 ± 1.20 %.
